Reference: patent US20230143612A1 (Arbutus Biopharma Corporation, priority 2020, published 2023)

These compounds were tested against PD-L1 His protein / PD-1 Fc protein (Homo sapiens, UniProt Q9NZQ7) (assay: HTRF Assay (PD-1/PD-L1 interaction)). Details: PD-L1 His 6 nM, PD-1 Fc 6 nM.
Sequence of PD-L1 His protein / PD-1 Fc protein (Q9NZQ7 19-238 limits assumed): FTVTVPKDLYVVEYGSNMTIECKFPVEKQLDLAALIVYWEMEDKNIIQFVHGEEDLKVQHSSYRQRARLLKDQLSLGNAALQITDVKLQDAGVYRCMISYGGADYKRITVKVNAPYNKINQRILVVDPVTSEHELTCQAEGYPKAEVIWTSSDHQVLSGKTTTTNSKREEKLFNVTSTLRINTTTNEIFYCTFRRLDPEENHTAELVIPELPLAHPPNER
Type: binding
Experimental: PD-L1 His protein was prepared and added at the final concentration of 6 nM in the White opaque 384 well plate (Corning cat #3824BC). PD-L1 small molecule inhibitors were diluted by 3-fold starting from 20 μM and a final concentration of 0.001 μM and added to the well. PD-1 Fc protein was added at the final concentration of 6 nM. PD-L1 His protein, PD-L1 small molecule inhibitors, and PD1 Fc proteins were added to the well in this order, with each 5 μl volume, and were incubated for 15 minutes at room temperature. PAb anti-Human IgG-XL665 (Cisbio, cat #61HFCXLA) and Mab anti-6HIS Tb cryptate Gold (Cisbio, cat #61HI2TLA) were mixed at 6.7 nM and 0.35 nM respectively, and total 5 μl volume of mixture was added to the well and incubated at room temperature for 1 hour. The plate was read using PerkinElmer Envision plate reader and data was analyzed by Prism 6 software.
Work on `COc1nc(-c2cccc(-c3cccc(-c4ccn5c(=O)c(CNC[C@@H]6CCC(=O)N6)ccc5c4)c3Cl)c2Cl)cnc1CNC[C@@H]1CCC(=O)N1` [Example 107, 8-(2,2′-Dichloro-3′-(6-methoxy-5-(((((S)-5-oxopyrrolidin-2-yl)methyl)amino)methyl)pyrazin-2-yl)-[1,1′-biphenyl]-3-yl)-3-(((((S)-5-oxopyrrolidin-2-yl)methyl)amino)methyl)-4H-quinolizin-4-one] yielded an IC50 of 0.4 nM. With `COc1nc(-c2cccc(-c3cccc(-c4ccc5nc(CNC[C@@H]6CCC(=O)N6)n(C)c5n4)c3Cl)c2Cl)ccc1CNC[C@@H]1CCC(=O)N1` [Example 314, (S)-5-((((6-(2,2′-Dichloro-3′-(3-methyl-2-(((((S)-5-oxopyrrolidin-2-yl)methyl)amino)methyl)-3H-imidazo[4,5-b]pyridin-5-yl)-[1,1′-biphenyl]-3-yl)-2-methoxypyridin-3-yl)methyl)amino)methyl)pyrrolidin-2-one] the IC50 was 3.9 nM. `COc1nc(-c2cccc(-c3cccc(-c4ccn5c(=O)c(CN6CC[C@H](O)C6)cnc5c4)c3Cl)c2Cl)ccc1CNC[C@@H]1CCC(=O)N1` [Example 144, 8-(2,2′-Dichloro-3′-(6-methoxy-5-(((((S)-5-oxopyrrolidin-2-yl)methyl)amino)methyl)pyridin-2-yl)-[1,1′-biphenyl]-3-yl)-3-(((S)-3-hydroxypyrrolidin-1-yl)methyl)-4H-pyrido[1,2-a]pyrimidin-4-one] gave an IC50 of 3.1 nM. Compound `COc1nc(-c2cccc(-c3cccc(-c4ccn5c(=O)c(CNC[C@@H]6CCC(=O)N6)cnc5c4)c3C)c2C)ccc1CNC[C@@H]1CCC(=O)N1` [Example 31, 8-(3′-(6-Methoxy-5-(((((S)-5-oxopyrrolidin-2-yl)methyl)amino)methyl)pyridin-2-yl)-2,2′-dimethyl-[1,1′-biphenyl]-3-yl)-3-(((((S)-5-oxopyrrolidin-2-yl)methyl)amino)methyl)-4H-pyrido[1,2-a]pyrimidin-4-one] has an IC50 of 2.3 nM. `COc1nc(-c2cccc(-c3cccc(-c4ccn5c(=O)c(CNC[C@@H]6CCC(=O)N6)cnc5c4)c3Cl)c2Cl)ccc1CN[C@H]1C[C@](C)(O)C1` [Example 142, 8-(2,2′-Dichloro-3′-(5-((((1r,3r)-3-hydroxy-3-methylcyclobutyl)amino)methyl)-6-methoxypyridin-2-yl)-[1,1′-biphenyl]-3-yl)-3-(((((S)-5-oxopyrrolidin-2-yl)methyl)amino)methyl)-4H-pyrido[1,2-a]pyrimidin-4-one] showed an IC50 of 1.7 nM. Work on `COC(=O)C(C)(C)CNCc1nn2cc(-c3cccc(-c4cccc(-c5ccc(CNC[C@@H]6CCC(=O)N6)c(OC)n5)c4Cl)c3Cl)cc2c(=O)n1C` [Example 495, Methyl 3-[[6-[2-chloro-3-[2-chloro-3-[6-methoxy-5-[[[(2S)-5-oxopyrrolidin-2-yl]methylamino]methyl]-2-pyridyl]phenyl]phenyl]-3-methyl-4-oxo-pyrrolo[2,1-f][1,2,4]triazin-2-yl]methylamino]-2,2-dimethyl-propanoate] yielded an IC50 of 0.7 nM. For `COc1nc(-c2cccc(-c3cccc(-c4ccn5c(=O)c(CNC[C@@H]6CCO6)cnc5c4)c3Cl)c2Cl)ccc1CNC[C@@H]1CCC(=O)N1` [Example 306, 8-[2-Chloro-3-[2-chloro-3-[6-methoxy-5-[[[(2S)-5-oxopyrrolidin-2-yl]methylamino]methyl]-2-pyridyl]phenyl]phenyl]-3-[[[(2S)-oxetan-2-yl]methylamino]methyl]pyrido[1,2-a]pyrimidin-4-one], the IC50 was 4.8 nM. For `COc1nc(-c2cccc(-c3cccc(-c4ccc5c(=O)nc(CNC[C@@H]6CCC(=O)N6)[nH]c5c4)c3Cl)c2Cl)ccc1CNC[C@@H]1CCC(=O)N1` [Example 421, 7-(2,2′-Dichloro-3′-(6-methoxy-5-(((((S)-5-oxopyrrolidin-2-yl)methyl)amino)methyl)pyridin-2-yl)-[1,1′-biphenyl]-3-yl)-2-(((((S)-5-oxopyrrolidin-2-yl)methyl)amino)methyl)quinazolin-4(1H)-one], the IC50 was 14 nM. For `COc1nc(-c2cccc(-c3cccc(-c4ccn5c(=O)c(CN(C)CCNC(=O)OC(C)(C)C)cnc5c4)c3Cl)c2Cl)ccc1CN(C)CCNC(=O)OC(C)(C)C` [Example 277, tert-butyl (2-(((6-(3′-(3-(((2-((tert-butoxycarbonyl)amino)ethyl)(methyl)amino)methyl)-4-oxo-4H-pyrido[1,2-a]pyrimidin-8-yl)-2,2′-dichloro-[1,1′-biphenyl]-3-yl)-2-methoxypyridin-3-yl)methyl)(methyl)amino)ethyl)carbamate], the IC50 was 200 nM. Work on `COc1nc(-c2cccc(-c3cccc(-c4ccn5c(=O)c(CN(C)CCO)cnc5c4)c3Cl)c2Cl)ccc1CNC[C@@H]1CCC(=O)N1` [Example 281, (S)-8-(2,2′-Dichloro-3′-(6-methoxy-5-((((5-oxopyrrolidin-2-yl)methyl)-amino)-methyl)pyridin-2-yl)-[1,1′-biphenyl]-3-yl)-3-(((2-hydroxyethyl)(methyl)amino)methyl)-4H-pyrido[1,2-a]-pyrimidin-4-one] yielded an IC50 of 0.1 nM. Compound `COc1nc(-c2cccc(-c3cccc(-c4ccn5c(=O)c(CNC6CCN(C(C)=O)CC6)cnc5c4)c3Cl)c2Cl)ccc1CNC1CCN(C(C)=O)CC1` [Example 322, 3-[[(1-Acetyl-4-piperidyl)amino]methyl]-8-[3-[3-[5-[[(1-acetyl-4-piperidyl)amino]methyl]-6-methoxy-2-pyridyl]-2-chloro-phenyl]-2-chloro-phenyl]pyrido[1,2-a]pyrimidin-4-one] has an IC50 of 0.1 nM. Compound `Cc1c(COc2cc(OCc3cncc(C#N)c3)c(CNC[C@@H]3CCC(=O)N3)cc2Cl)cccc1-c1cccc(-c2ccn3c(=O)c(CNC[C@@H]4CCC(=O)N4)cnc3c2)c1C` [Example 12, 5-((4-Chloro-5-((2,2′-dimethyl-3′-(4-oxo-3-(((((S)-5-oxopyrrolidin-2-yl)methyl)amino)methyl)-4H-pyrido[1,2-a]pyrimidin-8-yl)-[1,1′-biphenyl]-3-yl)methoxy)-2-(((((S)-5-oxopyrrolidin-2-yl)methyl)amino)methyl)phenoxy)methyl)nicotinonitrile] has an IC50 of 0.3 nM. `COc1nc(-c2cccc(-c3cccc(-c4ccn5c(=O)c(CNC[C@H](C)O)cnc5c4)c3Cl)c2Cl)cc(F)c1CNC[C@@H]1CCC(=O)N1` [Example 272, 8-[2-Chloro-3-[2-chloro-3-[4-fluoro-6-methoxy-5-[[[(2S)-5-oxopyrrolidin-2-yl]methylamino]methyl]-2-pyridyl]phenyl]phenyl]-3-[[[(2S)-2-hydroxypropyl]amino]methyl]pyrido[1,2-a]pyrimidin-4-one] gave an IC50 of 0.2 nM. Compound `COc1nc(-c2cccc(-c3cccc(-c4cc5c(=O)n(C)c(CNC6CC(C)(O)C6)nn5c4)c3Cl)c2Cl)cc(F)c1CNC[C@@H]1CCC(=O)N1` (stereo partly drawn) [compound 480, (S)-6-(2,2′-dichloro-3′-(4-fluoro-6-methoxy-5-((((5-oxopyrrolidin-2-yl)methyl)amino)methyl)pyridin-2-yl)-[1,1′-biphenyl]-3-yl)-2-(((3-hydroxy-3-methylcyclobutyl)amino)methyl)-3-methylpyrrolo[2,1-f][1,2,4]triazin-4(3H)-one] has an IC50 of 69 nM. `CCc1nc2cc(-c3cccc(-c4cccc(-c5ccc(CNC[C@@H]6CCC(=O)N6)c(OC)n5)c4Cl)c3Cl)ccn2c(=O)c1CNC[C@@H]1CCC(=O)N1` [Example 399, 8-(2,2′-Dichloro-3′-(6-methoxy-5-(((((S)-5-oxopyrrolidin-2-yl)methyl)amino)methyl)pyridin-2-yl)-[1,1′-biphenyl]-3-yl)-2-ethyl-3-(((((S)-5-oxopyrrolidin-2-yl)methyl)amino)methyl)-4H-pyrido[1,2-a]pyrimidin-4-one] gave an IC50 of 110 nM. Compound `COc1nc(-c2cccc(-c3cccc(-c4cc5c(=O)n(C)c(CNC[C@@H](O)CC(=O)N(C)C)nn5c4)c3Cl)c2Cl)ccc1CNC[C@@H]1CCC(=O)N1` [Example 481, (S)-4-(((6-(2,2′-Dichloro-3′-(6-methoxy-5-(((((S)-5-oxopyrrolidin-2-yl)methyl)amino)methyl)pyridin-2-yl)-[1,1′-biphenyl]-3-yl)-3-methyl-4-oxo-3,4-dihydropyrrolo[2,1-f][1,2,4]triazin-2-yl)methyl)amino)-3-hydroxy-N,N-dimethylbutanamide] has an IC50 of 42 nM. Compound `COc1nc(-c2cccc(-c3cccc(-c4ccn5c(=O)c(CNC6(CC(=O)O)CC6)cnc5c4)c3Cl)c2Cl)ccc1CNC[C@@H]1CCC(=O)N1` [Example 139, (S)-2-(1-(((8-(2,2′-Dichloro-3′-(6-methoxy-5-((((5-oxopyrrolidin-2-yl)methyl)amino)methyl)-pyridin-2-yl)-[1,1′-biphenyl]-3-yl)-4-oxo-4H-pyrido[1,2-a]pyrimidin-3-yl)methyl)amino)-cyclopropyl)acetic acid] has an IC50 of 0.4 nM. Work on `Cc1c(-c2ccn3c(=O)c(CNC[C@@H]4CCC(=O)N4)cnc3c2)cccc1-c1cccc(-c2ccc3c(c2)CC(NC(=O)[C@@H](N)CO)C3)c1Cl` (mixture of isomers) [Example 45, (2S)-2-Amino-N-(5-(2-chloro-2′-methyl-3′-(4-oxo-3-(((((S)-5-oxopyrrolidin-2-yl)methyl)amino)methyl)-4H-pyrido[1,2-a]pyrimidin-8-yl)-[1,1′-biphenyl]-3-yl)-2,3-dihydro-1H-inden-2-yl)-3-hydroxypropanamide] yielded an IC50 of 680 nM. `CNC(=O)C(C)(C)NCc1cnc2cc(-c3cccc(-c4cccc(-c5ccc(CNC[C@@H]6CCC(=O)N6)c(OC)n5)c4Cl)c3Cl)ccn2c1=O` [Example 209, (S)-2-(((8-(2,2′-Dichloro-3′-(6-methoxy-5-((((5-oxopyrrolidin-2-yl)methyl)amino)methyl)pyridin-2-yl)-[1,1′-biphenyl]-3-yl)-4-oxo-4H-pyrido[1,2-a]pyrimidin-3-yl)methyl)amino)-N,2-dimethylpropanamide] gave an IC50 of 0.1 nM.
